± gives the expanded uncertainty stated by the source.
Experiment: xn = mol fraction of the nth substance listed
Settings: 98.93 kPa, Liquid

OCC(O)CO [glycerol] + O
mass density [kg/m3]
Settings	298.15 K	303.15 K	308.15 K
x1 = 0.002	999.43 ± 1.3	998.01 ± 1.3	996.37 ± 1.4
x1 = 0.005	1002.93 ± 1.3	1001.48 ± 1.4	999.81 ± 1.4
x1 = 0.01	1008.63 ± 1.3	1007.12 ± 1.4	1005.42 ± 1.4
x1 = 0.019	1019.51 ± 1.3	1017.89 ± 1.4	1016.12 ± 1.5
x1 = 0.03	1029.73 ± 1.3	1028.03 ± 1.4	1026.18 ± 1.4
x1 = 0.04	1039.37 ± 1.4	1037.58 ± 1.4	1035.66 ± 1.5
x1 = 0.05	1048.46 ± 1.4	1046.58 ± 1.4	1044.59 ± 1.5
x1 = 0.065	1061.17 ± 1.4	1059.16 ± 1.4	1057.08 ± 1.5
x1 = 0.08	1072.85 ± 1.4	1070.74 ± 1.5	1068.56 ± 1.5
x1 = 0.1	1087.05 ± 1.4	1084.79 ± 1.5	1082.51 ± 1.6
x1 = 0.125	1102.86 ± 1.5	1100.45 ± 1.5	1098.03 ± 1.6
x1 = 0.1526	1118.23 ± 1.5	1115.66 ± 1.6	1113.11 ± 1.6
x1 = 0.17	1126.96 ± 1.5	1124.3 ± 1.6	1121.66 ± 1.6
x1 = 0.18	1131.68 ± 1.5	1128.97 ± 1.6	1126.28 ± 1.7
x1 = 0.2	1140.54 ± 1.6	1137.73 ± 1.6	1134.94 ± 1.7
